Test results as given in paper PMC4931022, “Arginine demethylation is catalysed by a subset of JmjC histone lysine demethylases” (Nature Communications, 2016).

Legend:
Type in all cases: biochemical
KDM6B [1] = target: T1, KDM6B (Homo sapiens, UniProt O15054); experiment: MALDI MS activity assay, recombinant KDM6B catalytic domain; conditions: KDM6B 2 μM, peptide 10 μM, 1 h, 37 °C, 2OG 100 μM, ascorbate 100 μM, Fe(II) 10 μM, 50 mM HEPES pH 7.5, 150 mM NaCl; MALDI-TOF MS, −14 Da shift
T1 construct: His6 (N); made in house; host or cells: Escherichia coli
Protocol: (§1) MALDI MS activity assays. Recombinant proteins (2 μM) were incubated with peptides (10 μM, sequences are given in Supplementary Table 1) and cofactors/substrates for 1 h at 37 °C, unless otherwise specified. Reactions were quenched with 1:1 (v/v) methanol and analysed with MALDI MS. Assay conditions for each enzyme are given in Supplementary Table 2. Negative controls without enzyme were included.
(§2) Supplementary Table 2 Assay conditions with truncated recombinant protein.
(§3) Supplementary Table 3 Assay conditions with full length Flag-tagged KDMs.

KDM4E [2] = target: T2, KDM4E (Homo sapiens, UniProt B2RXH2); experiment: Formaldehyde dehydrogenase-coupled demethylation assay, KDM4E; conditions: for kcat/KM: KDM4E; for kcat / Km: KDM4E catalytic domain, apparent, preliminary, 37 °C, mean±s.e.m., n=3; for kcat: FDH/NAD+-coupled assay; for Km: FDH/NAD+-coupled formaldehyde assay, 2OG 200 μM, Fe(II) 10 μM, ascorbate 100 μM
T2 construct: His6 (N); made in house; host or cells: Escherichia coli
T2 sequence (B2RXH2 1-337): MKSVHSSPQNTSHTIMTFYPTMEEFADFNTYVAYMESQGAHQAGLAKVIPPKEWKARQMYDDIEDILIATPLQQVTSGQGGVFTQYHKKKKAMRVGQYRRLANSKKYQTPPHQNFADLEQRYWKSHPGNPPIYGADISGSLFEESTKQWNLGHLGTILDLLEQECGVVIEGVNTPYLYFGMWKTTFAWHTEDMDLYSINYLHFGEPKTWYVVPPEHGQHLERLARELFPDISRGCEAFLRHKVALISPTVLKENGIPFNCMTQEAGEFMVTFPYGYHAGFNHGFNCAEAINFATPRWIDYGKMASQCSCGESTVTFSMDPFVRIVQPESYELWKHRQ
Protocol: (§4) Formaldehyde dehydrogenase-coupled assays. Preliminary kinetic parameters were determined by detection of the formaldehyde by-product of the demethylation reaction using a FDH (formaldehyde dehydrogenase-coupled)/NAD^+-coupled assay as previously described. Assays were carried out in buffer (enzyme-dependent) with the addition of Fe(II) ammonium sulfate (10 μM), sodium ascorbate (100 μM), 2OG (200 μM), NAD^+ (500 μM), enzyme (0.2–4 μM) and FDH enzyme (0.025 U per assay, Sigma-Aldrich; total volume 30 μl) and were conducted at 37 °C in clear-bottom black 384-well plates. […] The Km and Vmax values were calculated from the reaction rate during the linear phase of formaldehyde production, as determined by the slope of the fluorescence signal recorded.

KDM3A = target: T3, KDM3A (Homo sapiens, UniProt Q9Y4C1); experiment: MALDI MS activity assay, recombinant KDM3A catalytic domain; conditions: KDM3A 2 μM, peptide 10 μM, 1 h, 37 °C, 2OG 100 μM, ascorbate 100 μM, Fe(II) 50 μM, 50 mM HEPES pH 7.5; MALDI-TOF MS, −14 Da shift
T3 construct: KDM3A515–1,317; His6 (N); made in house; host or cells: Sf9 cells
T3 sequence (Q9Y4C1 515-1317 limits assumed): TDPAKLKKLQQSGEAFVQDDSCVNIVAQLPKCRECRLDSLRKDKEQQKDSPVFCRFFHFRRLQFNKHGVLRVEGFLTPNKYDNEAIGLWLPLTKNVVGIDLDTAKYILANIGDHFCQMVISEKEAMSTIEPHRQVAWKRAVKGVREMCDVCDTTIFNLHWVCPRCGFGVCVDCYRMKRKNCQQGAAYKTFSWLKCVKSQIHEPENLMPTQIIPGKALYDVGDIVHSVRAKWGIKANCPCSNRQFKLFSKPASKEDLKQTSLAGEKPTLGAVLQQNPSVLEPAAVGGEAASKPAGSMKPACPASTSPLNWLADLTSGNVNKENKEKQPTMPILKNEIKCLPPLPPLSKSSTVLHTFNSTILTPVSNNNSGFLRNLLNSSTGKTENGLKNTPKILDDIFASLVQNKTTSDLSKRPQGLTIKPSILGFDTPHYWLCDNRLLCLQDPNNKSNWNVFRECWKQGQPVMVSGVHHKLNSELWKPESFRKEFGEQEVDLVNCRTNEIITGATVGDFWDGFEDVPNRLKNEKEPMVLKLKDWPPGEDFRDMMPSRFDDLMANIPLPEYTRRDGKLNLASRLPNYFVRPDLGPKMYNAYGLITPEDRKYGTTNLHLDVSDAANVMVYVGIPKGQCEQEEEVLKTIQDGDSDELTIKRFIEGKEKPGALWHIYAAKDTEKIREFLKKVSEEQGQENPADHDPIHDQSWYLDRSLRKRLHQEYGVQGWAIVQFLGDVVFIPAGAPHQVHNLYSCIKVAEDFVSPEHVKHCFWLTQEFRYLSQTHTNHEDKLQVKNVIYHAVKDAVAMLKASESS
Protocol: as §1, §2, §3

KDM5C [3] = target: T4, KDM5C (Homo sapiens, UniProt P41229); experiment: Formaldehyde dehydrogenase-coupled demethylation assay, KDM5C
T4 construct: KDM5C1–765 was produced as an N-terminally His6-tagged protein in Sf9 cells; His6 (N); made in house; host or cells: Sf9 cells (provided by the Structural Genomics Consortium)
T4 sequence (P41229 1-765): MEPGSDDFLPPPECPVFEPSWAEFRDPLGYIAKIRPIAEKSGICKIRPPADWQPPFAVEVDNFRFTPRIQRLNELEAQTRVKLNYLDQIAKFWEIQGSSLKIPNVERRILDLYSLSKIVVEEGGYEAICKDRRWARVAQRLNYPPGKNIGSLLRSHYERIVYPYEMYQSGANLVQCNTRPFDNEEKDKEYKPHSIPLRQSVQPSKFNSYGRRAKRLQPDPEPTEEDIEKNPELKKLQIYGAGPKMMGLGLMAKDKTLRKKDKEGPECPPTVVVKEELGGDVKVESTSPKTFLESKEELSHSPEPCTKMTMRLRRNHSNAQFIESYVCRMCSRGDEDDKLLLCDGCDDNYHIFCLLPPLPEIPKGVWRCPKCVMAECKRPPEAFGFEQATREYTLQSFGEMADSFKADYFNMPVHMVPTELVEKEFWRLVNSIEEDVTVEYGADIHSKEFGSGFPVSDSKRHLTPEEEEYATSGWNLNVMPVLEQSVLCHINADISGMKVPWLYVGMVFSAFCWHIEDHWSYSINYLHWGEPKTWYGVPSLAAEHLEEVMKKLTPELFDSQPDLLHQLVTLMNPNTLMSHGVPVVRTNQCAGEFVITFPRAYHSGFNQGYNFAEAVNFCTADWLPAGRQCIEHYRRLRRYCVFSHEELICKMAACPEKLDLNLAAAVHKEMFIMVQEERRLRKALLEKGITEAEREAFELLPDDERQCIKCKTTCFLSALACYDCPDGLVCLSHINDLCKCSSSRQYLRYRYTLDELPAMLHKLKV
Protocol: as §4

KDM4E [4] = target: T2, KDM4E; experiment: MALDI MS activity assay, recombinant KDM4E catalytic domain; conditions: peptide 10 μM, 1 h, 37 °C, MALDI-TOF MS; for observed arginine demethylation activity: KDM4E 2 μM, 2OG 200 μM, ascorbate 100 μM, Fe(II) 10 μM, 50 mM HEPES pH 7.5, −14 Da shift
Protocol: as §1
(§5) Supplementary Table 2 Assay conditions with truncated recombinant protein. […]

KDM5C [5] = target: T4, KDM5C; experiment: MALDI MS activity assay, recombinant KDM5C catalytic domain; conditions: peptide 10 μM, 1 h, 37 °C, MALDI-TOF MS; for observed arginine demethylation activity: KDM5C 2 μM, 2OG 100 μM, ascorbate 100 μM, Fe(II) 10 μM, 50 mM HEPES pH 7.5, −14 Da shift
Protocol: as §1, §5

KDM6B [6] = target: T1, KDM6B; experiment: Formaldehyde dehydrogenase-coupled demethylation assay, KDM6B
Protocol: as §4

[7] = calculated from the average kcat and KM values, μM^−1 s^−1 for this quantity

T1 sequence (O15054 1141-1590 limits assumed): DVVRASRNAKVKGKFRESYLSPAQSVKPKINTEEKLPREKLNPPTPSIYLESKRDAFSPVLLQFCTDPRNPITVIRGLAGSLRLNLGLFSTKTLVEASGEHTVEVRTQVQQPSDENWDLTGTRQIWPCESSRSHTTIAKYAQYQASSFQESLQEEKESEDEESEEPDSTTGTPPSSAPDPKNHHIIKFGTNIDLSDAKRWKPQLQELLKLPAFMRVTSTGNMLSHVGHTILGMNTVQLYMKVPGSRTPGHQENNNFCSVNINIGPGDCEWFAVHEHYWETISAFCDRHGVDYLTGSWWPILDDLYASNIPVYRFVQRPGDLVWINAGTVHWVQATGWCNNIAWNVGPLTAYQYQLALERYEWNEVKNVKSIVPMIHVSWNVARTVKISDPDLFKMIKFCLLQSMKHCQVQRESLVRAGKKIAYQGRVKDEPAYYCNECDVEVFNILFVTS

| Substance | observed arginine demethylation activity (KDM6B [1]) | observed arginine demethylation activity (KDM3A) | observed arginine demethylation activity (KDM4E [4]) | observed arginine demethylation activity (KDM5C [5]) | other results |
| --- | --- | --- | --- | --- | --- |
| A-Rme2a-TKQTARKSTGGKA [H3(1-15)R2me2a, 'natural' histone H3 peptide asymmetrically dimethylated at R2] | − | − | + | + | kcat/KM (KDM4E [2]): 0.000114 µM⁻¹ s⁻¹; kcat (KDM4E [2]): 9.9±1.0 × 10^−3 s^−1; Km (KDM4E [2]): 86.9 ± 16.5 µM; kcat/KM (KDM4E [2]; [7]): 114.0 × 10^−6; kcat/KM, times lower than that for H3K4me3 (KDM5C [3]; KDM5C): 14 times; kcat (KDM5C [3]; KDM5C catalytic domain, apparent, preliminary, FDH/NAD+-coupled assay, 37 °C, mean±s.e.m., n=3): 12.0±0.7 × 10^−3 s^−1; Km (KDM5C [3]; KDM5C catalytic domain, apparent, preliminary, FDH/NAD+-coupled formaldehyde assay, 37 °C, 2OG 200 μM, Fe(II) 10 μM, ascorbate 100 μM, mean±s.e.m., n=3): 19 ± 1.9 µM; kcat/KM (KDM5C [3]; KDM5C, calculated from the average kcat and KM values, μM^−1 s^−1 for this quantity): 630.0 × 10^−6; demethylation, in words (KDM4E [4]; KDM4E catalytic domain 2 μM): relatively good RDM substrate; demethylation, in words (KDM5C [5]; KDM5C catalytic domain 2 μM): relatively good RDM substrate |
| H3(14-34)K27me3: 21-residue recognized histone H3 N-methylated-lysine peptide substrate for KDM6B |  |  |  |  | kcat (KDM6B [6]; KDM6B catalytic domain, apparent, preliminary, FDH/NAD+-coupled assay, 37 °C, mean±s.e.m., n=3): 11.7±0.1 × 10^−3 s^−1; Km (KDM6B [6]; KDM6B catalytic domain, apparent, preliminary, FDH/NAD+-coupled formaldehyde assay, 37 °C, 2OG 200 μM, Fe(II) 10 μM, ascorbate 100 μM, mean±s.e.m., n=3): 6.7 ± 0.6 µM; kcat/KM (KDM6B [6]; KDM6B, calculated from the average kcat and KM values): 1,750.0 × 10^−6 |
| SG-Rme2a-GKGGKGLGKGGA [H4(1-15)R3me2a, 'natural' histone H4 residues 1-15 peptide asymmetrically dimethylated at R3] | − | − | + | + | kcat (KDM4E [2]): 2.1±0.1 × 10^−3 s^−1; Km (KDM4E [2]): 122 ± 10.1 µM; kcat/KM (KDM4E [2]; [7]): 17.7 × 10^−6 |
| SG-Rme2s-GKGGKGLGKGGA [H4 (1–15) R3me2s, 'natural' histone H4 residues 1-15 peptide symmetrically dimethylated at R3] | − | − | + | − |  |
| SG-Rme-GKGGKGLGKGGAK [H4 (1–15) R3me, 'natural' histone H4 peptide monomethylated at R3] | − | − | − | − |  |
| STGGKAP-Rme2a-KQLATKA [H3 (10–24) R17me2a, 'natural' histone H3 peptide asymmetrically dimethylated at R17] | − | − | − | − |  |
| STGGKAP-Rme-KQLATKA [H3 (10–24) R17me, 'natural' histone H3 peptide monomethylated at R17] | − | − | − | − |  |
